Test results as given in paper PMC8227162 (Molecules, 2021).
Entries after “also recorded” stand apart in the source; their conditions may differ. Counter-ions that a name gives are not always drawn.

Experiments:
[1] = system: MDA-MB-231, MDA-MB-468, 4T1, and MCF7 cells; assay: SRB cytotoxicity assay, all four breast cancer cell lines; type: cell-based; conditions: over the four breast cancer cell lines; read-out: IC50 span over all treatments
Experimental: (§1) MDA-MB-231, MDA-MB-468, 4T1, and MCF7 cell lines were purchased from American Type Culture Collection (ATCC) (Manassas, VA, USA). RPMI medium supplemented with 5% fetal bovine serum (FBS) was used to culture the cell lines while being maintained in a humidified atmosphere at 37 °C, 5% CO2.
(§2) Cytotoxicity was assessed after 48 h incubation using sulforhodamine B (SRB) assay as described previously. Cells were fixed using 10% trichloroacetic acid and stained with SRB. The cytotoxicity experiments were performed in triplicate (n = 3). The 50% growth inhibition (IC50) was then assessed by using SRB assay after 48 h incubation. Data are represented as the mean ± SD of three independent experiments of each cell line.

murine bone marrow cells = system: murine bone marrow cells; set-up: method as in PMID 12110316; conditions: cited from earlier work
MCF7 cells = assay: SRB cytotoxicity assay, MCF7 cells; type: cell-based; conditions: Homo sapiens, 48 h incubation (Figure 3 legend: 72 h)
Experimental: as §1, §2

MDA-MB-231 cells = assay: SRB cytotoxicity assay, MDA-MB-231 cells; type: cell-based; conditions: Homo sapiens, 48 h incubation (Figure 3 legend: 72 h)
Experimental: as §1, §2

MDA-MB-468 cells = assay: SRB cytotoxicity assay, MDA-MB-468 cells; type: cell-based; conditions: Homo sapiens, 48 h incubation (Figure 3 legend: 72 h)
Experimental: as §1, §2

4T1 cells = assay: SRB cytotoxicity assay, 4T1 cells; type: cell-based, murine; conditions: Mus musculus, 48 h incubation (Figure 3 legend: 72 h)
Experimental: as §1, §2

4T1 tumors = assay: In vivo antitumor effects in 4T1 tumor-bearing Balb/c mice; conditions: 3 mg/kg (TFA equivalent) IV, 9-day treatment
Experimental: Female Balb/c mice (6–12 weeks old, mean weight = 20–25 g) were supplied by the Laboratory Animal Care Facility of the Arabian Gulf University (AGU), Bahrain. […] All animal experiments were performed based on the rules and regulations of the Arabian Gulf University Animal Care Policy and approved by the Research and Ethics Committee, REC Approval No: G-E001-PI-12/16.
To propagate the tumor, female Balb/c mice (n = 3) were injected with one million 4T1 mammary carcinoma cells bilaterally (right and left side) on the flanks. The tumor was then collected and cut down into small pieces with an average size of 1–3 mm^3 in sterile PBS to sustain tumor viability. Following this, 5 mice of each group were shaved, anesthetized, and inoculated with one small piece of the 4T1 tumor tissue subcutaneously. […] The first day of drug administration was set as Day 0. Tumor volume was measured by a manual caliber, and the volume was estimated by using the formula:V (mm^3) = ((transverse section (W)^2 × longitudinal cross section (L))/2)
Tumor volumes were normalized by using the initial tumor volume and represented as the mean ± standard error of the mean (SEM). Additionally, the body weight of mice was measured every day and normalized daily for 9 days.

Structure (SMILES): COc1cc2cc(C(=O)N3CC(CCl)c4c3cc(O)c3ccoc43)[nH]c2c(OC)c1OC (stereo not shown) [TFA, tafuramycin A]
- IC50 [1]: 4.55 to 20.2 nM
- Toxicity against murine bone marrow cells (murine bone marrow cells): only mild toxicity
- IC50 (MCF7 cells): 4.55 nM
- IC50 (MDA-MB-231 cells): 4.6 nM
- IC50 (MDA-MB-468 cells): 18.3 nM
- IC50 (4T1 cells): 5.9 nM
- Body weight changes (4T1 tumors): not associated with any statistically significant weight loss; also recorded: no significant weight loss
